# Results: article PMC10743905, “Design, Synthesis, and In Vitro and In Vivo Bioactivity Studies of Hydrazide–Hydrazones of 2,4-Dihydroxybenzoic Acid” (International Journal of Molecular Sciences, 2023)
# Columns and labels:
# [1] = tested on: Bordetella bronchiseptica ATCC 4617; assay: Broth microdilution MIC/MBC; type: cell-based
# Description: (§1) In vitro antimicrobial activity assays - Methodology
# (§2) The examined compounds 1 - 24 were screened in vitro for antibacterial and antifungal activities using the broth microdilution method according to procedure reported earlier by our research group and European Committee on Antimicrobial Susceptibility Testing (EUCAST) and Clinical and Laboratory Standards Institute (CLSI) guidelines against a panel of reference and clinical or saprophytic strains of microorganisms, in-cluding Gram-positive bacteria, Staphylococcus aureus ATCC 43300 (Methicillin Resistant S. aureus – MRSA), Staphylococcus aureus ATCC 29213 (Methicillin Susceptible S. aureus – MSSA), Staphylococcus epidermidis ATCC 12228, Enterococcus faecalis ATCC 29212, Micro-coccus luteus ATCC 10240, Bacillus subtilis ATCC 6633 and Bacillus cereus ATCC 10876), Gram-negative bacteria (Bordetella bronchiseptica ATCC 4617, Escherichia coli ATCC 25922, Klebsiella pneumoniae ATCC 13883, Proteus mirabilis ATCC 12453, Salmonella typhimurium ATCC 14028 and Pseudomonas aeruginosa ATCC 9027) and fungi belonging to yeasts (Can-dida albicans ATCC 10231, Candida albicans ATCC 2091, Candida parapsilosis ATCC 22019, Candida glabrata ATCC 90030 and Candida krusei ATCC 14243). The microorganisms be-longing to ATCC came from American Type Culture Collection, routinely used for the evaluation of antimicrobials. All the used microbial cultures were first subcultured on nu-trient agar or Sabouraud agar at 35°C for 18-24 h or 30°C for 24-48 h for bacteria and fungi, […]
# (§3) The surface of Mueller-Hinton agar (for bacteria) and RPMI 1640 with MOPS (for fungi) were inoculated with the suspensions of bacterial or fungal species. Microbial suspensions were prepared in sterile saline with an optical density of McFarland standard scale 0.5.
# (§4) Samples containing examined compounds were dissolved in dimethyl sulfoxide (DMSO).
# (§5) Furthermore, bacterial and fungal suspensions were put onto Petri dishes with solid me-dia containing 2 mg/mL of the tested compounds followed incubation at 37°C for 24h and 30°C for 48h for bacteria and fungi, respectively. The inhibition of microbial growth was judged by comparison with a control culture prepared without any sample tested. Ciprof-loxacin, vancomycin, nitrofurantoin, cefuroxime, ampicillin or nystatin (Sigma) were used as a reference antibacterial or antifungal compounds, respectively.
# (§6) Subsequently, the MIC (Minimal Inhibitory Concentration) of the compounds was ex-amined by the microdilution broth method, using their two-fold dilutions in Mueller- […]
# (§7) Hinton broth or (for bacteria) and RPMI 1640 broth with MOPS (for fungi) prepared in 96-well polystyrene plates. Final concentrations of the compounds ranged from 1000 to 0.488 µg/ml. Microbial suspensions were prepared in 0.85% NaCl with an optical density of 0.5 McFarland standard. Next each bacterial or fungal suspension was added per each well containing broth and various concentrations of the examined compounds. After incuba-
# [2] = tested on: Bacillus cereus ATCC 10876; assay: Broth microdilution MIC/MBC; type: cell-based; conditions: for MBC: ATCC10876; for MIC: ATCC10876, read-out: MIC
# Description: as §1, §2, §3, §4, §5, §6, §7
# [3] = tested on: Klebsiella pneumoniae ATCC 13883; assay: Broth microdilution MIC/MBC; type: cell-based; conditions: ATCC13883
# Description: as §1, §2, §3, §4, §5, §6, §7
# [4] = tested on: Enterococcus faecalis ATCC 29212; assay: Broth microdilution MIC/MBC; type: cell-based; conditions: for MIC: ATCC29212, read-out: MIC
# Description: as §1, §2, §3, §4, §5, §6, §7
# [5] = tested on: Escherichia coli ATCC 25922; assay: Broth microdilution MIC/MBC; type: cell-based; conditions: ATCC25922
# Description: as §1, §2, §3, §4, §5, §6, §7
# [6] = tested on: Candida albicans ATCC 2091; assay: Broth microdilution MIC/MFC; type: cell-based; conditions: ATCC2091, read-out: MIC
# Description: as §1, §2, §3, §4, §5, §6, §7
# [7] = tested on: Candida parapsilosis ATCC 22019; assay: Broth microdilution MIC/MFC; type: cell-based; conditions: Lodderomyces parapsilosis, ATCC22019, read-out: MIC
# Description: as §1, §2, §3, §4, §5, §6, §7
# [8] = tested on: Candida krusei ATCC 14243; assay: Broth microdilution MIC/MFC; type: cell-based; conditions: Pichia kudriavzevii, ATCC14243, read-out: MIC
# Description: as §1, §2, §3, §4, §5, §6, §7
# [9] = tested on: Candida glabrata ATCC 90030; assay: Broth microdilution MIC/MFC; type: cell-based; conditions: Nakaseomyces glabratus, ATCC90030, read-out: MIC
# Description: as §1, §2, §3, §4, §5, §6, §7
# [10] = tested on: Candida albicans ATCC 10231; assay: Broth microdilution MIC/MFC; type: cell-based; conditions: for MIC: ATCC10231, read-out: MIC
# Description: as §1, §2, §3, §4, §5, §6, §7
# [11] = tested on: Proteus mirabilis ATCC 12453; assay: Broth microdilution MIC/MBC; type: cell-based; conditions: ATCC12453
# Description: as §1
# as §2, with “antimicrobials.” for “antimicrobials. All the used microbial cultures were first subcultured on nu-trient agar or Sabouraud agar at 35°C for 18-24 h or 30°C for 24-48 h for bacteria and fungi,”
# (§8) Samples containing examined compounds were dissolved in dimethyl sulfoxide (DMSO). […]
# as §6, §7
# [12] = tested on: Pseudomonas aeruginosa ATCC 9027; assay: Broth microdilution MIC/MBC; type: cell-based; conditions: ATCC9027
# Description: as §1
# as §2, with “antimicrobials.” for “antimicrobials. All the used microbial cultures were first subcultured on nu-trient agar or Sabouraud agar at 35°C for 18-24 h or 30°C for 24-48 h for bacteria and fungi,”
# as §8, §6, §7
# [13] = tested on: Salmonella typhimurium ATCC 14028; assay: Broth microdilution MIC/MBC; type: cell-based; conditions: Salmonella enterica
# Description: as §1
# as §2, with “antimicrobials.” for “antimicrobials. All the used microbial cultures were first subcultured on nu-trient agar or Sabouraud agar at 35°C for 18-24 h or 30°C for 24-48 h for bacteria and fungi,”
# as §8, §6, §7
# [14] = tested on: Staphylococcus aureus ATCC 29213; assay: Broth microdilution MIC/MBC; type: cell-based
# Description: as §1
# as §2, with “antimicrobials.” for “antimicrobials. All the used microbial cultures were first subcultured on nu-trient agar or Sabouraud agar at 35°C for 18-24 h or 30°C for 24-48 h for bacteria and fungi,”
# as §8, §6, §7
# [15] = tested on: Staphylococcus aureus ATCC 43300; assay: Broth microdilution MIC/MBC; type: cell-based; conditions: Staphylococcus aureus ATCC 43300 (MRSA)
# Description: as §1
# as §2, with “antimicrobials.” for “antimicrobials. All the used microbial cultures were first subcultured on nu-trient agar or Sabouraud agar at 35°C for 18-24 h or 30°C for 24-48 h for bacteria and fungi,”
# as §8, §6, §7
# [16] = tested on: Staphylococcus epidermidis ATCC 12228; assay: Broth microdilution MIC/MBC; type: cell-based; conditions: for MIC: ATCC12228, read-out: MIC
# Description: as §1
# as §2, with “antimicrobials.” for “antimicrobials. All the used microbial cultures were first subcultured on nu-trient agar or Sabouraud agar at 35°C for 18-24 h or 30°C for 24-48 h for bacteria and fungi,”
# as §8, §6, §7
# [17] = tested on: Micrococcus luteus ATCC 10240; assay: Broth microdilution MIC/MBC; type: cell-based; conditions: for MBC: ATCC10240; for MIC: ATCC10240, read-out: MIC
# Description: as §1
# as §2, with “antimicrobials.” for “antimicrobials. All the used microbial cultures were first subcultured on nu-trient agar or Sabouraud agar at 35°C for 18-24 h or 30°C for 24-48 h for bacteria and fungi,”
# as §8, §6, §7
# Gram-negative bacteria = assay: Broth microdilution, summary over the Gram-negative panel; type: cell-based
# Description: as §1, §2, §3, §4, §5, §6, §7
# [18] = tested on: Bacillus subtilis ATCC 6633; assay: Broth microdilution MIC/MBC; type: cell-based; conditions: for MIC: ATCC6633, read-out: MIC
# Description: Detailed procedures are presented in the Supplementary Materials. […]
# as §1, §2, §3, §4, §5, §6, §7
# [19] = tested on: reference Gram-positive bacteria; assay: Broth microdilution, summary over the Gram-positive panel; type: cell-based; conditions: read-out: MIC
# Description: as §1
# as §2, with “antimicrobials.” for “antimicrobials. All the used microbial cultures were first subcultured on nu-trient agar or Sabouraud agar at 35°C for 18-24 h or 30°C for 24-48 h for bacteria and fungi,”
# as §8, §6, §7
Compound,MIC ([1]; ATCC4617),MBC/MIC [2],MBC [2],MIC [2],MIC [3],MIC [4],MIC [5],MIC [6],MIC [7],MIC [8],MIC [9],MIC [10],melting point,MIC [11],MIC [12],MIC [13],MIC ([14]; ATCC29213),MIC [15],MIC [16],MBC/MIC [17],also measured
"CCOc1cc(/C=N/NC(=O)c2ccc(O)cc2O)ccc1OC [Compound 14, N-[(3-ethoxy-4-methoxyphenyl)methylidene]-2,4-dihydroxybenzohydrazide]",1000 µg/mL,> 2,> 1000 µg/mL,500 µg/mL,> 1000 µg/mL,> 1000 µg/mL,> 1000 µg/mL,> 1000 µg/mL,> 1000 µg/mL,> 1000 µg/mL,> 1000 µg/mL,500 µg/mL,230 °C,> 1000 µg/mL,> 1000 µg/mL,> 1000 µg/mL,> 1000 µg/mL,> 1000 µg/mL,> 1000 µg/mL,> 8,"MBC/MIC [1]: 1; MBC ([1]; ATCC4617): 1000 µg/mL; MFC/MIC [10]: > 2; MFC ([10]; ATCC10231, read-out: MFC): > 1000 µg/mL; MBC [17]: > 1000 µg/mL; MIC [17]: 125 µg/mL; MBC (Gram-negative bacteria): > 1000 µg/mL; MIC (Gram-negative bacteria): 500 to 1000 µg/mL; MIC [18]: > 1000 µg/mL"
"COc1ccc(/C=N/NC(=O)c2ccc(O)cc2O)cc1Br [Compound 10, N-[(3-bromo-4-methoxyphenyl)methylidene]-2,4-dihydroxybenzohydrazide]",> 1000 µg/mL,2,250 µg/mL,125 µg/mL,> 1000 µg/mL,250 µg/mL,> 1000 µg/mL,> 1000 µg/mL,> 1000 µg/mL,> 1000 µg/mL,> 1000 µg/mL,> 1000 µg/mL,260 °C,> 1000 µg/mL,> 1000 µg/mL,> 1000 µg/mL,15.6 µg/mL,31.2 µg/mL,1000 µg/mL,> 4,"MBC/MIC [4]: 4; MBC ([4]; ATCC29212, read-out: MBC): 1000 µg/mL; MBC/MIC [14]: 16; MBC ([14]; ATCC29213): 250 µg/mL; MBC [15]: 500 µg/mL; MBC/MIC [15]: 16; MBC/MIC [16]: > 1; MBC ([16]; ATCC12228): 1000 µg/mL; MBC [17]: > 1000 µg/mL; MIC [17]: 250 µg/mL; MIC [19]: 15.6 to 1000 µg/mL; MBC/MIC [18]: > 4; MBC ([18]; ATCC6633): > 1000 µg/mL; MIC [18]: 250 µg/mL"
